Data on 35 compounds can be found in ChEMBL document CHEMBL4823319, “Design, synthesis, and biological evaluation of potent 1,2,3,4-tetrahydroisoquinoline derivatives as anticancer agents targeting NF-κB signaling pathway” (Bioorg Med Chem, 2021).

One assay deals with NUGC-3. Description: Anticancer activity against human […] cells assessed as growth inhibition incubated for 48 hrs by sulforhodamine B method. It counts as functional. A general note: The SRB assay estimates cell density from bound dye.
For the next assay, the system named is NCI-H23. Nature of the assay: Anticancer activity against human NCI-H23 cells assessed as growth inhibition incubated for 48 hrs by sulforhodamine B method. In kind it is functional.
In assay [1] the test system is MDA-MB-231. Nature of the assay: Anticancer activity against human MDA-MB-231 cells assessed as growth inhibition incubated for 48 hrs by sulforhodamine B method. In kind it is functional.
In the next assay the test system is PC-3. Description: Anticancer activity against human PC-3 cells assessed as growth inhibition incubated for 48 hrs by sulforhodamine B method. It counts as functional.
A further assay concerns HCT-15. Nature of the assay: Anticancer activity against human HCT-15 cells assessed as growth inhibition incubated for 48 hrs by sulforhodamine B method. In kind it is functional.
The next assay relates to ACHN. Description: Anticancer activity against human […] cells assessed as growth inhibition incubated for 48 hrs by sulforhodamine B method. It counts as functional.
Assay [2] concerns MDA-MB-231. Nature of the assay: Inhibition of NF-kappaB in human MDA-MB-231 cells assessed as reduction in LPS-induced NF-kappaB nuclear translocation at 10 uM treated with LPS for 24 hrs by Western blotting analysis. It counts as cell-based. For orientation: In western blotting, separated proteins are transferred to a membrane and probed.
Assay [3] has as its system MDA-MB-231. Description: Inhibition of NF-kappaB in human MDA-MB-231 cells assessed as reduction in LPS-induced NF-kappaB nuclear translocation at 10 uM treated with LPS for 24 hrs by immunocytochemical analysis. It counts as cell-based.
Assay [4] can be described thus: Inhibition of NF-kappaB transcriptional activity in mouse RAW264.7 cells harbouring NF-kappaB-SEAP-NPT reporter plasmid assessed as reduction in LPS-induced SEAP expression incubated for 16 hr with LPS. It counts as cell-based.

Activity calls are given as the source filed them. The calls are words filed in the database; no cut-off is given here.

On to `O=C(Nc1cccc(C(F)(F)F)c1)C1c2ccccc2CCN1C(=O)c1ccc(Cl)cc1` (stereo unspecified), for which the GI50 with NUGC-3 was above 10 µM.

With `COc1ccc(NC(=O)C2c3ccccc3CCN2C(=O)c2ccc(Cl)cc2)cc1` (stereo unspecified), the GI50 was determined as 3.63 µM in the assay on NUGC-3; 4.34 µM in the assay on NCI-H23; 4.9 µM with MDA-MB-231 [1]; 3.48 µM in the assay on PC-3; 6.08 µM with HCT-15; 3.67 µM in the assay on ACHN.

For `COc1ccc(NC(=O)c2nccc3ccccc23)cc1`, the GI50 with NUGC-3 is above 10 µM.

Consider `O=C(Nc1ccc(C(F)(F)F)cc1)C1c2ccccc2CCN1C(=O)c1ccc(Cl)cc1` (stereo unspecified), for which the GI50 in the assay on NUGC-3 worked out at 4.2 µM; in the assay with NCI-H23, 3.34 µM; in the assay with MDA-MB-231 [1] it was 4.35 µM; with PC-3, 4.49 µM; in the assay on HCT-15, 5.11 µM; in the assay on ACHN, 3.47 µM.

For the compound `O=C(Nc1ccccc1C(F)(F)F)c1nccc2ccccc12`, in the assay with NUGC-3, the 50% growth inhibitory concentration (GI50) was above 10 µM.

As to `O=C(Nc1ccccc1Cl)c1nccc2ccccc12`, the GI50 in the assay with NUGC-3 was above 10 µM.

For the compound `COc1cccc(NC(=O)C2NCCc3ccccc32)c1` (stereo unspecified), the GI50 with NUGC-3 was above 10 µM.

With `O=C(Nc1ccccc1C(F)(F)F)C1c2ccccc2CCN1C(=O)c1ccc(Cl)cc1` (stereo unspecified), the GI50 in the assay on NUGC-3 is above 10 µM.

As for `O=C(Nc1ccc(O)cc1)c1nccc2ccccc12`, the GI50 in the assay with NUGC-3 is above 10 µM.

Turning to `O=C(Nc1ccccc1O)C1c2ccccc2CCN1C(=O)c1ccc(Cl)cc1` (stereo unspecified), the GI50 in the assay on NUGC-3 is above 10 µM.

As for `O=C(Nc1ccccc1C(F)(F)F)C1NCCc2ccccc21` (stereo unspecified), the GI50 with NUGC-3 is above 10 µM.

For `O=C(Nc1ccc(O)cc1)C1c2ccccc2CCN1C(=O)c1ccc(Cl)cc1` (stereo unspecified), in the assay with NUGC-3, the GI50 is above 10 µM.

In the case of `O=C(Nc1cccc(C(F)(F)F)c1)c1nccc2ccccc12`, the 50% growth inhibitory concentration (GI50) with NUGC-3 was above 10 µM.

As for `O=C(Nc1cccc(O)c1)c1nccc2ccccc12`, the GI50 in the assay on NUGC-3 was above 10 µM.

`COc1cccc(NC(=O)c2nccc3ccccc23)c1`: in the assay with NUGC-3, the GI50 was above 10 µM.

For `O=C(Nc1cc(C(F)(F)F)cc(C(F)(F)F)c1)C1NCCc2ccccc21` (stereo unspecified), the GI50 in the assay on NUGC-3 was above 10 µM.

Consider `COc1cccc2c1C(=O)c1c(O)c3c(c(O)c1C2=O)C[C@@](O)(C(=O)CO)C[C@@H]3O[C@H]1C[C@H](N)[C@H](O)[C@H](C)O1` [DOXORUBICIN], for which the GI50 was determined as 0.072 µM in the assay with NCI-H23; 0.086 µM in the assay with MDA-MB-231 [1]; 0.09 µM in the assay on PC-3; 0.076 µM in the assay with HCT-15; 0.088 µM with ACHN.

`O=C(Nc1ccc(O)cc1)C1NCCc2ccccc21` (stereo unspecified): the GI50 in the assay on NUGC-3 amounted to 4.37 µM; in the assay on NCI-H23, 3.39 µM; in the assay on MDA-MB-231 [1] it was 5.05 µM; in the assay with PC-3, 4.25 µM; in the assay with HCT-15, 5.73 µM; in the assay on ACHN, 5.32 µM.

Take `O=C(Nc1cccc(O)c1)C1NCCc2ccccc21` (stereo unspecified): in the assay on NUGC-3, the GI50 was above 10 µM.

Turning to `O=C(Nc1cc(C(F)(F)F)cc(C(F)(F)F)c1)c1nccc2ccccc12`, the GI50 in the assay with NUGC-3 is above 10 µM.

For `COc1ccc(NC(=O)C2NCCc3ccccc32)cc1` (stereo unspecified), the GI50 with NUGC-3 is above 10 µM.

Take `O=C(Nc1cc(C(F)(F)F)cc(C(F)(F)F)c1)C1c2ccccc2CCN1C(=O)c1ccc(Cl)cc1` (stereo unspecified): the GI50 in the assay on NUGC-3 is 2.83 µM; in the assay on NCI-H23, 2.02 µM; in the assay with MDA-MB-231 [1] it was 2.71 µM; in the assay on PC-3 it was 2.56 µM; in the assay with HCT-15, 3.52 µM; in the assay on ACHN, 2.65 µM.

`COc1ccccc1NC(=O)C1c2ccccc2CCN1C(=O)c1ccc(Cl)cc1` (stereo unspecified): the inhibition result in the assay with MDA-MB-231 [2] is “Dose-Dependent Effect”. Also, the GI50 in the assay with NUGC-3 was 1.59 µM; in the assay with NCI-H23 it was 1.94 µM; with MDA-MB-231 [1] it was 2.28 µM; in the assay with PC-3 it was 2.01 µM; with HCT-15 it was 1.74 µM; in the assay on ACHN, 1.98 µM. In addition, the inhibition entry with MDA-MB-231 [3] is “Active”.

With `O=C(Nc1ccc(C(F)(F)F)cc1)C1NCCc2ccccc21` (stereo unspecified), the GI50 amounted to 4.22 µM in the assay with NUGC-3; 4.4 µM in the assay with NCI-H23; 4.74 µM in the assay on MDA-MB-231 [1]; 6.59 µM in the assay with PC-3; 5.44 µM in the assay with HCT-15; 5.2 µM in the assay on ACHN.

In the case of `COc1ccccc1NC(=O)C1NCCc2ccccc21` (stereo unspecified), the GI50 in the assay on NUGC-3 is above 10 µM.

`COc1cc2c(cc1O)CCC(C(=O)Nc1ccccc1)O2` (stereo unspecified): in assay [4], the IC50 stood at 40.4 µM.

Take `COc1ccccc1NC(=O)c1nccc2ccccc12`: the GI50 with NUGC-3 is above 10 µM.

For `O=C(Nc1ccc(Cl)cc1)c1nccc2ccccc12`, in the assay on NUGC-3, the GI50 was above 10 µM.

Turning to `O=C(Nc1ccc(C(F)(F)F)cc1)c1nccc2ccccc12`, the GI50 in the assay on NUGC-3 is above 10 µM.

On to `O=C(Nc1ccccc1O)c1nccc2ccccc12`, for which the GI50 in the assay on NUGC-3 is above 10 µM.

For the compound `O=C(Nc1ccccc1O)C1NCCc2ccccc21` (stereo unspecified), the GI50 with NUGC-3 was above 10 µM.

With `O=C(Nc1cccc(O)c1)C1c2ccccc2CCN1C(=O)c1ccc(Cl)cc1` (stereo unspecified), the concentration for 50% growth inhibition (GI50) in the assay with NUGC-3 was above 10 µM.

Turning to `O=C(Nc1cccc(C(F)(F)F)c1)C1NCCc2ccccc21` (stereo unspecified), in the assay with NUGC-3, the concentration for 50% growth inhibition (GI50) was above 10 µM.

On to `COc1cccc(NC(=O)C2c3ccccc3CCN2C(=O)c2ccc(Cl)cc2)c1` (stereo unspecified), for which the GI50 was 2.14 µM in the assay with NUGC-3; 2.42 µM in the assay with NCI-H23; 3.21 µM in the assay on MDA-MB-231 [1]; 2.89 µM in the assay with PC-3; 3.62 µM in the assay with HCT-15; 2.96 µM with ACHN.

`O=C(Nc1cccc(Cl)c1)c1nccc2ccccc12`: the 50% growth inhibitory concentration (GI50) in the assay with NUGC-3 is above 10 µM.

What is called GI50 is the concentration giving 50% growth inhibition. Usually IC50 stands for the concentration that gives 50% inhibition.
